Test results from patent US20260042731A1, “(2,4-DICHLOROPHENOXY)ACETIC ACID ANALOGS” (CORTEVA AGRISCIENCE LLC, priority 2022, published 2026).
“And” between values parts separate entries of the source, which are not always exact repeats. Equal entries are not always repeated. Where two headings read alike, the source gives them in different places.

Assays:
[1] = test system: Amaranthus rudis (AMATA), tall water hemp; experiment: Postemergence herbicide evaluation, growth of Amaranthus rudis (AMATA); type: in vivo; details: for Ave. AMATA, percent reduction in plant size relative to the untreated control: 21 DAA; for pest or weed control at 280 g/ha / pest or weed control at 560 g/ha: Amaranthus tuberculatus, post-emergence, percent reduction in plant size relative to untreated control, read-out: Ave. AMATA
[2] = test system: Ambrosia artemisiifolia (AMBEL), common ragweed; experiment: Postemergence herbicide evaluation, growth of Ambrosia artemisiifolia (AMBEL); type: in vivo; details: for AVE. AMBEL, percent reduction in plant size relative to the untreated control: 21 DAA; for pest or weed control at 280 g/ha / pest or weed control at 560 g/ha: Ambrosia artemisiifolia, post-emergence, percent reduction in plant size relative to untreated control, read-out: AVE. AMBEL
[3] = test system: Abutilon theophrasti (ABUTH), velvetleaf; experiment: Postemergence herbicide evaluation, growth of Abutilon theophrasti (ABUTH); type: in vivo; details: for AVE. ABUTH, percent reduction in plant size relative to the untreated control: 21 DAA; for pest or weed control at 280 g/ha / pest or weed control at 560 g/ha: Abutilon theophrasti, post-emergence, percent reduction in plant size relative to untreated control, read-out: AVE. ABUTH
[4] = test system: Chenopodium album (CHEAL), common lambsquarters; experiment: Postemergence herbicide evaluation, growth of Chenopodium album (CHEAL); type: in vivo; details: for Ave. CHEAL, percent reduction in plant size relative to the untreated control: 21 DAA; for pest or weed control at 280 g/ha / pest or weed control at 560 g/ha: Chenopodium album, post-emergence, percent reduction in plant size relative to untreated control, read-out: Ave. CHEAL
[5] = test system: glyphosate resistant Conyza canadensis (L.) (ERICA), horseweed; experiment: Postemergence herbicide evaluation, growth of Conyza canadensis (ERICA); type: in vivo; details: for Ave. ERICA, percent reduction in plant size relative to the untreated control: 21 DAA; for pest or weed control at 280 g/ha / pest or weed control at 560 g/ha: Erigeron canadensis, post-emergence, percent reduction in plant size relative to untreated control, read-out: Ave. ERICA
[6] = Volatility of compounds measured by thermogravimetric analysis (TGA); type: physicochemical
[7] = test system: weeds (ABUTH, AMATA, AMBEL, CHEAL, ERICA); experiment: Postemergence herbicide evaluation, overall average % weed control across ABUTH, AMATA, AMBEL, CHEAL, ERICA; type: in vivo; details: post-emergence, average over the five weeds, read-out: Overall Ave % Weed Control; for pest or weed control at 280 g/ha: 280 g ae/ha; for pest or weed control at 560 g/ha: 560 g ae/ha
[8] = test system: ABUTH, AMATA, AMBEL, CHEAL, ERICA weeds; experiment: as above; type: in vivo; details: 21 DAA
Source text: For example, the pesticidal activity may include herbicidal activity.

[9] = test system: Corn (ZEAMX); experiment: Greenhouse post-emergence mixture trials, percent visual control; type: in vivo; details: Trial Bridge 2, ZEAMX, 21 DAA
[10] = test system: Common Lambsquarters (CHEAL); experiment: as above; type: in vivo; details: CHEAL, 21 DAA
[11] = test system: Velvetleaf (ABUTH); experiment: as above; type: in vivo; details: Trial Bridge 2, ABUTH, 21 DAA, compound 0 g ae/ha
[12] = test system: Tall Waterhemp (AMATA); experiment: as above; type: in vivo; details: Trial Bridge 2, 21 DAA
[13] = test system: Horseweed (ERICA); experiment: as above; type: in vivo; details: 21 DAA
[14] = Trifludimoxazin 12.5 g ai or ae/ha alone (B2 rate 0)
[15] = Trifludimoxazin 25 g ai or ae/ha alone (B2 rate 0)
[16] = Trifludimoxazin 50 g ai or ae/ha alone (B2 rate 0)
[17] = Trial Bridge 2, Trifludimoxazin 25 g ai or ae/ha alone (B2 rate 0)
[18] = Trial Bridge 2, Trifludimoxazin 50 g ai or ae/ha alone (B2 rate 0)

SMILES: N/C(Cc1ccccc1)=N\OC(=O)COc1ccc(Cl)cc1Cl [Compound A17, N′-(2-(2,4-Dichlorophenoxy)acetoxy)-2-phenylacetimidamide]
- Ave. AMATA, percent reduction in plant size relative to the untreated control ([1]; 280 g ae/ha): 83%
- Ave. AMATA, percent reduction in plant size relative to the untreated control ([1]; 560 g ae/ha): 89%
- pest or weed control at 280 g/ha ([1]; 168 h, 280 g ae/ha, 7 DAA): 73%
- pest or weed control at 560 g/ha ([1]; 168 h, 560 g ae/ha, 7 DAA): 70%
- pest or weed control at 280 g/ha ([1]; 336 h, 280 g ae/ha, 14 DAA): 78%
- pest or weed control at 560 g/ha ([1]; 336 h, 560 g ae/ha, 14 DAA): 80%
- AVE. AMBEL, percent reduction in plant size relative to the untreated control ([2]; 280 g ae/ha): 92%
- AVE. AMBEL, percent reduction in plant size relative to the untreated control ([2]; 560 g ae/ha): 99%
- pest or weed control at 280 g/ha ([2]; 168 h, 280 g ae/ha, 7 DAA): 65%
- pest or weed control at 560 g/ha ([2]; 168 h, 560 g ae/ha, 7 DAA): 80%
- pest or weed control at 280 g/ha ([2]; 336 h, 280 g ae/ha, 14 DAA): 86%
- pest or weed control at 560 g/ha ([2]; 336 h, 560 g ae/ha, 14 DAA): 96%
- AVE. ABUTH, percent reduction in plant size relative to the untreated control ([3]; 280 g ae/ha): 65%
- AVE. ABUTH, percent reduction in plant size relative to the untreated control ([3]; 560 g ae/ha): 83%
- pest or weed control at 280 g/ha ([3]; 168 h, 280 g ae/ha, 7 DAA): 48%
- pest or weed control at 560 g/ha ([3]; 168 h, 560 g ae/ha, 7 DAA): 68%
- pest or weed control at 280 g/ha ([3]; 336 h, 280 g ae/ha, 14 DAA): 65%
- pest or weed control at 560 g/ha ([3]; 336 h, 560 g ae/ha, 14 DAA): 80%
- Ave. CHEAL, percent reduction in plant size relative to the untreated control ([4]; 280 g ae/ha): 85%
- Ave. CHEAL, percent reduction in plant size relative to the untreated control ([4]; 560 g ae/ha): 90%
- pest or weed control at 280 g/ha ([4]; 168 h, 280 g ae/ha, 7 DAA): 70%
- pest or weed control at 560 g/ha ([4]; 168 h, 560 g ae/ha, 7 DAA): 68%
- pest or weed control at 280 g/ha ([4]; 336 h, 280 g ae/ha, 14 DAA): 78%
- pest or weed control at 560 g/ha ([4]; 336 h, 560 g ae/ha, 14 DAA): 85%
- Ave. ERICA, percent reduction in plant size relative to the untreated control ([5]; 280 g ae/ha): 97%
- Ave. ERICA, percent reduction in plant size relative to the untreated control ([5]; 560 g ae/ha): 94%
- pest or weed control at 280 g/ha ([5]; 168 h, 280 g ae/ha, 7 DAA): 65%
- pest or weed control at 560 g/ha ([5]; 168 h, 560 g ae/ha, 7 DAA): 65%
- pest or weed control at 280 g/ha ([5]; 336 h, 280 g ae/ha, 14 DAA): 85%
- pest or weed control at 560 g/ha ([5]; 336 h, 560 g ae/ha, 14 DAA): 83%
- TGA Data (rate of weight loss, volatility) [6]: 4.1 µg/min
- pest or weed control at 280 g/ha ([7]; 168 h, 7 DAA): 64%
- pest or weed control at 560 g/ha ([7]; 168 h, 7 DAA): 70%
- pest or weed control at 280 g/ha ([7]; 336 h, 14 DAA): 78%
- pest or weed control at 560 g/ha ([7]; 336 h, 14 DAA): 85%
- Overall Ave % Weed Control ([8]; 280 g ae/ha): 84%
- Overall Ave % Weed Control ([8]; 560 g ae/ha): 91%

SMILES: C#CCN1C(=O)C(F)(F)Oc2cc(F)c(-n3c(=O)n(C)c(=S)n(C)c3=O)cc21 [Trifludimoxazin, trifludimoxazin]
- % Control [9, 14]: 5% and 10%
- % Control [9, 15]: 15% and 5% and 10%
- % Control [9, 16]: 15% and 20% and 10%
- % Control ([10]; Trial Bridge 2, Trifludimoxazin 12.5 g ai or ae/ha alone (B2 rate 0)): 100%
- % Control [10, 17]: 100%
- % Control [10, 18]: 100%
- % Control ([11]; Trifludimoxazin alone 12.5 g ai or ae/ha): 100%
- % Control ([11]; Trifludimoxazin alone 25 g ai or ae/ha): 100%
- % Control ([11]; Trifludimoxazin alone 50 g ai or ae/ha): 100%
- % Control [12, 14]: 100%
- % Control [12, 15]: 100%
- % Control [12, 16]: 100%
- % Control [13, 17]: 25% and 30%
- % Control [13, 18]: 30% and 25%
